From patent publication US20230146795A1, “ENHANCEMENT OF ANTI-TUMOR ACTIVITY OF SHP2 INHIBITOR PYRIMIDINONE IN COMBINATION WITH NOVEL CANCER MEDICINES IN CANCERS” (TAIHO PHARMACEUTICAL CO., LTD., priority 2020, published 2023)

Experiments:
Format in all cases: cell-based
[1] = test system: MV-4-11; assay: Anti-proliferation assay (CellTiter-Glo 2.0), combination index, MV-4-11
Method: (§1) Cell lines were obtained from ATCC or Health Science Research Resources Bank.
(§2) 384 well culture plate (781086, Greiner Bio-One International) was used for cell survival rate measurement assay. Each cell lines were collected by ordinary method, then suspended in indicated medium containing 10% fetal bovine serum in table 3. The number of cells seeded per well was set to 500 cells/20 μL. After incubation at 37° C. for 24 hours under 5% CO2, Compound 1 and additional compound having an antitumor effect or a vehicle (DMSO) was added to each well by using D300e Digital Dispenser (Tecan). The concentration of Compound 1 was set to 10 concentrations. The concentration of each anti-cancer reagents set to 8 concentrations including 0 nM. After adding the medicine to the cells, the cells were further incubated at 37° C. for 3 days under 5% CO2. Cell survival rates were calculated by adding 20 μL of CellTiter-Glo(registered trademark) 2. 0 (Promega) solution to each well, incubating the cells at room temperature for 10 minutes, and then measuring the chemiluminescence intensity of each well using a plate reader (ARVO).
(§3) A combination index (CI) value at each combined concentration of the medicines was determined.

[2] = test system: RT4; assay: Anti-proliferation assay (CellTiter-Glo 2.0), combination index, RT4
Method in brief: (§4)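 Cells were seeded at 500 cells/well in medium with 10% FBS and exposed to agents at 8 concentrations including 0 nM, for 3 days at 37° C under 5% CO2. Survival was read by CellTiter-Glo 2.0 luminescence, and combination index was determined at each combined concentration.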

[3] = test system: RMG-I; assay: Anti-proliferation assay (CellTiter-Glo 2.0), combination index, RMG-I
Method: as §1, §2, §3

[4] = test system: NCI-H358; assay: Anti-proliferation assay (CellTiter-Glo 2.0), combination index, NCI-H358; settings: for Description (combinatory effect by CI): Compound 1:combination drug molar ratio 1:9
Method in brief: as §4

[5] = test system: MKN45; assay: Anti-proliferation assay (CellTiter-Glo 2.0), combination index, MKN45
Method in brief: as §4

[6] = Compound 1 13.7 + combination drug 13.7 nmol/L (1:1)
[7] = Compound 1 41.2 + combination drug 41.2 nmol/L (1:1)
[8] = Compound 1 123 + combination drug 123 nmol/L (1:1)
[9] = Compound 1 13.7 + combination drug 370 nmol/L (1:27)
[10] = Compound 1 41.2 + combination drug 1110 nmol/L (1:27)
[11] = Compound 1 123 + combination drug 3330 nmol/L (1:27)
[12] = Compound 1 370 + combination drug 10000 nmol/L (1:27)
[13] = Compound 1:combination drug molar ratio 1:27
[14] = Compound 1 123 + combination drug 1110 nmol/L (1:9)
[15] = Compound 1 370 + combination drug 3330 nmol/L (1:9)
[16] = Compound 1 1110 + combination drug 10000 nmol/L (1:9)
[17] = Compound 1:combination drug molar ratio 1:9
[18] = Compound 1 1.52 + combination drug 123 nmol/L (1:81)
[19] = Compound 1 4.57 + combination drug 370 nmol/L (1:81)
[20] = Compound 1 13.7 + combination drug 1110 nmol/L (1:81)
[21] = Compound 1 41.2 + combination drug 3330 nmol/L (1:81)
[22] = Compound 1 123 + combination drug 10000 nmol/L (1:81)
[23] = Compound 1:combination drug molar ratio 1:81
[24] = Compound 1 1.52 nmol/L + Palbociclib 123 nmol/L, molar ratio 1:81
[25] = Compound 1 13.7 nmol/L + Palbociclib 1110 nmol/L, molar ratio 1:81
[26] = Compound 1 41.2 nmol/L + Palbociclib 3330 nmol/L, molar ratio 1:81
[27] = Compound 1 123 nmol/L + Palbociclib 10000 nmol/L, molar ratio 1:81
[28] = Compound 1 41.2 nmol/L + Palbociclib 1110 nmol/L, molar ratio 1:27
[29] = Compound 1 123 nmol/L + Palbociclib 3330 nmol/L, molar ratio 1:27
[30] = Compound 1 370 nmol/L + Palbociclib 10000 nmol/L, molar ratio 1:27
[31] = Compound 1 41.2 + combination drug 370 nmol/L (1:9)
[32] = Compound 1 4.57 + combination drug 123 nmol/L (1:27)

## CC1(C)CCC(CN2CCN(c3ccc(C(=O)NS(=O)(=O)c4ccc(NCC5CCOCC5)c([N+](=O)[O-])c4)c(Oc4cnc5[nH]ccc5c4)c3)CC2)=C(c2ccc(Cl)cc2)C1 [Venetoclax]
[1]; [6]
  CI: 0.424
  Fa: 0.7436
[1]; [7]
  CI: 0.080
  Fa: 0.9696
[1]; [8]
  CI: 0.007
  Fa: 0.9987
[2]; [9]
  CI: 0.479
  Fa: 0.1751
[2]; [10]
  CI: 0.497
  Fa: 0.3605
[2]; [11]
  CI: 0.888
  Fa: 0.5099
[2]; [12]
  CI: 0.888
  Fa: 0.8781
[2]; [13]
  Description (combinatory effect by CI): Synergy (0.3-0.7)
[3]; [14]
  CI: 0.687
  Fa: 0.4133
[3]; [15]
  CI: 0.601
  Fa: 0.5921
[3]; [16]
  CI: 0.668
  Fa: 0.9240
[3]; [17]
  Description (combinatory effect by CI): Synergy (0.3-0.7)

## CC[C@H](Nc1ncnc2[nH]cnc12)c1nc2cccc(F)c2c(=O)n1-c1ccccc1 [Idelalisib]
[1]; [18]
  CI: 0.301
  Fa: 0.2988
[1]; [19]
  CI: 0.600
  Fa: 0.3705
[1]; [20]
  CI: 0.330
  Fa: 0.7136
[1]; [21]
  CI: 0.262
  Fa: 0.8924
[1]; [22]
  CI: 0.273
  Fa: 0.9566
[3]; [18]
  CI: 0.778
  Fa: 0.0902
[3]; [20]
  CI: 0.511
  Fa: 0.2747
[3]; [21]
  CI: 0.333
  Fa: 0.5012
[3]; [22]
  CI: 0.570
  Fa: 0.6059
[3]; [23]
  Description (combinatory effect by CI): Synergy (0.3-0.7)

## CC(=O)c1c(C)c2cnc(Nc3ccc(N4CCNCC4)cn3)nc2n(C2CCCC2)c1=O [Palbociclib]
[1]; [24]
  CI: 0.827
  Fa: 0.1698
[1]; [25]
  CI: 0.520
  Fa: 0.6523
[1]; [26]
  CI: 0.699
  Fa: 0.7944
[1]; [27]
  CI: 0.565
  Fa: 0.9297
[1]; combination effect, Compound 1 + Palbociclib, molar ratio 1:81
  Description: Synergy (0.3-0.7)
[3]; [25]
  CI: 0.411
  Fa: 0.3192
[3]; [26]
  CI: 0.271
  Fa: 0.4189
[3]; [27]
  CI: 0.225
  Fa: 0.5120
[4]; [28]
  CI: 0.774
  Fa: 0.1141
[4]; [29]
  CI: 0.695
  Fa: 0.2564
[4]; [30]
  CI: 0.833
  Fa: 0.4277

## CCN(CC)CCNC(=O)c1c(C)[nH]c(/C=C2\C(=O)Nc3ccc(F)cc32)c1C [Sunitinib]
[1]; [6]
  CI: 0.262
  Fa: 0.9463
[1]; [7]
  CI: 0.327
  Fa: 0.9651
[1]; [8]
  CI: 0.902
  Fa: 0.9666
[2]; [19]
  CI: 0.687
  Fa: 0.1808
[2]; [20]
  CI: 0.392
  Fa: 0.4883
[2]; [21]
  CI: 0.624
  Fa: 0.6270
[2]; [23]
  Description (combinatory effect by CI): Synergy (0.3-0.7)
[5]; [22]
  CI: 0.818
  Fa: 0.8052
[4]; [31]
  CI: 0.502
  Fa: 0.4562
[4]; [14]
  CI: 0.747
  Fa: 0.7002
[4]; [15]
  CI: 0.612
  Fa: 0.9541
[4]
  Description (combinatory effect by CI): Synergy (0.3-0.7)

## COc1cc2c(Nc3ccc(Br)cc3F)ncnc2cc1OCC1CCN(C)CC1 [Vandetanib]
[1]; [19]
  CI: 0.912
  Fa: 0.5454
[1]; [20]
  CI: 0.557
  Fa: 0.8322
[1]; [21]
  CI: 0.503
  Fa: 0.9448
[1]; [22]
  CI: 0.294
  Fa: 0.9916
[2]; [9]
  CI: 0.486
  Fa: 0.3118
[2]; [10]
  CI: 0.444
  Fa: 0.5143
[2]; [11]
  CI: 0.570
  Fa: 0.6645
[2]; [12]
  CI: 0.541
  Fa: 0.8261
[2]; [13]
  Description (combinatory effect by CI): Synergy (0.3-0.7)
[3]; [31]
  CI: 0.428
  Fa: 0.4951
[3]; [14]
  CI: 0.938
  Fa: 0.5602
[3]; [17]
  Description (combinatory effect by CI): Synergy (0.3-0.7)
[4]; [31]
  CI: 0.322
  Fa: 0.2982
[4]; [14]
  CI: 0.300
  Fa: 0.5211
[4]; [15]
  CI: 0.589
  Fa: 0.6208
[4]; [16]
  CI: 0.733
  Fa: 0.8142
[4]
  Description (combinatory effect by CI): Synergy (0.3-0.7)

## CCc1cc2c(cc1N1CCC(N3CCOCC3)CC1)C(C)(C)c1[nH]c3cc(C#N)ccc3c1C2=O [Alectinib]
[1]; [32]
  CI: 0.829
  Fa: 0.5762
[1]; [9]
  CI: 0.484
  Fa: 0.8852
[1]; [10]
  CI: 0.609
  Fa: 0.9534
[1]; [11]
  CI: 0.187
  Fa: 0.9967
[1]; [12]
  CI: 0.631
  Fa: 0.9962
[5]; [10]
  CI: 0.905
  Fa: 0.4310
[5]; [12]
  CI: 0.542
  Fa: 0.9801
[5]; [13]
  Description (combinatory effect by CI): Synergy (0.3-0.7)
